Target: Dihydroorotate dehydrogenase (quinone), mitochondrial (Homo sapiens, UniProt Q02127)
Experiment: Method for Testing Activities of Compounds at Enzyme Level: Principles of activity test at enzyme level: firstly, dihydroorotate (DHO) is oxidatively dehydrogenated by DHODH to form orotic acid (Orotate, OA), accompanied by reduction of Flavin mononucleotide (FMN) into reduced flavin mononucleotide (FMNH2) by accepting 2H+ and 2e−, then coenzyme Q (CoQ) as hydrogen acceptor accepting electron and proton from FMNH2 is reduced into reduced coenzyme Q (CoQH2), reduced coenzyme Q transfers electrons to a chromogenic substrate, […] (DCIP), and finally DCIP was reduced. […] The degree to which the substrate DHO is oxidized can be judged based on the degree of decrease in absorbance. The degree of oxidation of the substrate DHO per unit time is the initial rate of the enzymatic reaction. […] Substrate DHO was added to start the reaction with a DHO final concentration of 500 μM. The absorbance was read at 600 nm using a BioTek microplate reader and read every 30 s for 6 min. […] For calculating IC50 of a compound, Origin 8.0 was used to test the inhibition rate at least 8 concentrations.
Assay type: single protein

Dihydroorotate dehydrogenase (quinone), mitochondrial, sequence (Q02127 whole entry): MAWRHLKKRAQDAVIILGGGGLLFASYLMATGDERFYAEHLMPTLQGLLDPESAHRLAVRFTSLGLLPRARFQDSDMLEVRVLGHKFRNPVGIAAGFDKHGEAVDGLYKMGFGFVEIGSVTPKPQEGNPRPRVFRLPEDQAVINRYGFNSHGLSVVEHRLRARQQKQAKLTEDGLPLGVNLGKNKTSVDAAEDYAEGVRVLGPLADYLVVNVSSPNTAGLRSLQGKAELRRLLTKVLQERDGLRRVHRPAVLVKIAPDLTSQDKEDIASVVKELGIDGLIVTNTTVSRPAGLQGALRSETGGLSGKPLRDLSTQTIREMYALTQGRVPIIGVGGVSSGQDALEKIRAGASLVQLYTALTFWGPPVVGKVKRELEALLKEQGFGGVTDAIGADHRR

| Structure (SMILES) | IC50 [µM] |
| --- | --- |
| Cc1sc(N(C)/N=C/c2ccccc2C(=O)O)nc1-c1ccccc1Cl | 0.0355 |
| CN(/N=C/c1ccccc1C(=O)OCCc1ccccc1)c1nc(-c2ccccc2Cl)cs1 | > 50 |
| O=C(OCCc1ccccc1)c1ccccc1/C=N/Nc1nc(-c2ccccc2Cl)cs1 | > 50 |

— ChEMBL document CHEMBL5728275 (2021)
